Tested on: cardiomyocytes from double knock-in human iPS cell lines (mCherry at TNNI3 locus)
Assay: Experimental Example 1: mCherry (TNNI3 reporter) immunostaining measured by high contents screening
Assay type: cell-based
Design: key to average fluorescent intensity (at 30 μM): —: The symbol in Table 2 means that the average fluorescent intensity cannot be evaluated due to cell decrease
Conditions: read on 8th day, Alexa 647 anti-mCherry, control well 797
Summary of the method: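 Double knock-in iPS lines (EmGFP at TNNI1, mCherry at TNNI3) differentiated as embryoid bodies in stirred bioreactor at 37 °C, 5% O2: BMP4/activin A/bFGF, then VEGF, IWP-3, dorsomorphin, SB431542, then VEGF alone. On day 14, dissociated cells seeded at 1.0×10^4 cells/well on iMatrix-511 in AK02-based cardiomyocyte medium.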

## O=C1c2ccc(N3CCOCC3)cc2CN1c1ccc2[nH]c(-c3ccc(Br)cc3)nc2c1 [Example 8, 2-(2-(4-bromophenyl)-1H-benzimidazol-5-yl)-5-(morpholin-4-yl)isoindolin-1-one]
Test compound 1 μM added on 3rd and 6th culture days
  average fluorescent intensity (at 1 μM): 985
Test compound 30 μM added on 3rd and 6th culture days
  average fluorescent intensity (at 30 μM): —
